The values that follow come from patent publication US9409905B2, “Antibacterial compounds and methods for use” (PTC THERAPEUTICS, INC., priority 2011, dated 2016).

One experiment concerns E. coli 25922. Description: Antibacterial activity, microbroth dilution MIC (Table 1). Format: cell-based, Escherichia coli. As to conditions: Escherichia coli; microbroth dilution; control Gram-negative E. coli 25922 strain; read-out: MIC, 25922. The method in brief: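 Each strain is exposed to test compound in a microbroth dilution series; visible growth is scored macroscopically, and the lowest growth-free concentration is recorded as MIC in μg/mL.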
(Dilution methods test growth across graded concentrations, often in twofold steps.)

In experiment [1] the test system is Staphylococcus aureus (S. aureus) 29213. The description is as above. The format is cell-based. The note with it: microbroth dilution, Gram-positive S. aureus 29213, read-out: MIC, 29213. The method in brief:
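MIC (μg/mL) is taken as the lowest concentration with no macroscopically visible growth. Strains tested by microbroth dilution: Gram-positive S. aureus 29213, control Gram-negative E. coli 25922, and super-sensitive E. coli BAS849.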

The subject of experiment [2] is Escherichia coli (E. coli) BAS849. The description is as above. Format: cell-based. The note with it: microbroth dilution, super sensitive Gram-negative E. coli BAS849, read-out: MIC, BAS849. The method in brief:
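Growth inhibition by microbroth dilution. MIC = lowest μg/mL with no visible growth. Strain 25922 is the control Gram-negative; BAS849 is hypersensitive.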

Experiment [3] has as its system Pseudomonas aeruginosa (P. aeruginosa) 27853. Description: Antibacterial activity, MIC (Table 5). Format: cell-based. The note with it: P. aeruginosa 27853, read-out: MIC, 27853. The method in brief:
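Values are MICs in μg/mL, read as the lowest concentration at which no growth is visible by eye. They were determined by a microbroth dilution method.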

Another experiment relates to E. coli LZ3111. Description: Antibacterial activity, MIC, quinolone resistant strain (Table 2). The note with it: Escherichia coli, LZ3111, read-out: MIC LZ3111. The format is cell-based. The procedure, abridged:
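MIC values (μg/mL) came from a microbroth dilution assay, scored as the lowest drug concentration at which no growth was visible by eye.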

In experiment [4] the test system is Acinetobacter baumannii (A. baumannii) BAA747. Kind of experiment: Antibacterial activity, MIC (Table 4). The note with it: A. baumannii BAA747, read-out: MIC, BAA747. Format: cell-based. The method in brief: (§1)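 MIC (μg/mL) by microbroth dilution, taken as the lowest drug concentration preventing macroscopically visible growth. MXX strains are multi-drug resistant clinical isolates.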

Experiment [5] deals with Klebsiella pneumoniae (K. pneumoniae) 35657. Description: Antibacterial activity, MIC (Table 4). The format is cell-based. The note with it: K. pneumoniae 35657, read-out: MIC, 35657. The procedure, abridged:
as §1

Another experiment deals with K. pneumoniae MXX1232. Kind of experiment: Antibacterial activity, MIC, resistant strain (Table 4). The format is cell-based. As to conditions: Klebsiella pneumoniae, MXX1232; resistant K. pneumoniae MMX1232, multi-drug resistant clinical isolate; read-out: MIC, MMX1232. The procedure, abridged:
as §1

The test system of a further experiment is A. baumannii MXX2240. The experiment is described as above. Format: cell-based. As to conditions: Acinetobacter baumannii, MXX2240; resistant A. baumannii MMX2240, multi-drug resistant clinical isolate; read-out: MIC, MMX2240. The method in brief:
as §1

In brackets after ≈: the same amount, converted by molar mass. A value given as a limit tells only on which side of the number the result lay.

Usually MIC stands for the lowest concentration found to suppress growth. In the case of `CCCc1ccc2cc(-c3[nH]c(=O)c(C(=O)O)c(O)c3CC)[nH]c2c1` [Cpd 384, 5-ethyl-4-hydroxy-2-oxo-6-(6-propyl-1H-indol-2-yl)-1,2-dihydropyridine-3-carboxylic acid], the MIC in the experiment with E. coli 25922 was 12.5 to 150 µg/mL (≈ 36.7 to 441 µM); in [1], 12.5 to 150 µg/mL (≈ 36.7 to 441 µM); in experiment [2] it was under 1 µg/mL; in experiment [3], 12.5 to 150 µg/mL (≈ 36.7 to 441 µM); in the experiment with E. coli LZ3111, 12.5 to 150 µg/mL (≈ 36.7 to 441 µM); in [4], 12.5 to 150 µg/mL (≈ 36.7 to 441 µM). For the same compound, the MIC (in experiment [5]; in the experiment on K. pneumoniae MXX1232; with A. baumannii MXX2240) was 12.5 to 150 µg/mL (≈ 36.7 to 441 µM) throughout.
Turning to `CCc1c(-c2cc3cc(F)c(C)cc3[nH]2)[nH]c(=O)c(C(=O)O)c1O` [Cpd 385, 5-ethyl-6-(5-fluoro-6-methyl-1H-indol-2-yl)-4-hydroxy-2-oxo-1,2-dihydropyridine-3-carboxylic acid], the MIC is 12.5 to 150 µg/mL (≈ 37.8 to 454 µM) in the experiment with E. coli 25922; 3.5 to 12.5 µg/mL (≈ 10.6 to 37.8 µM) in experiment [1]; under 1 µg/mL in experiment [2]; 12.5 to 150 µg/mL (≈ 37.8 to 454 µM) in experiment [3]; 12.5 to 150 µg/mL (≈ 37.8 to 454 µM) in the experiment on E. coli LZ3111; 12.5 to 150 µg/mL (≈ 37.8 to 454 µM) in experiment [4]. For the same compound, the MIC (in experiment [5]; in the experiment on K. pneumoniae MXX1232; with A. baumannii MXX2240) was 12.5 to 150 µg/mL (≈ 37.8 to 454 µM) throughout.
Turning to `CCc1ccc2[nH]c(-c3[nH]c(=O)c(C(=O)O)c(O)c3C)cc2c1` [Cpd 386, 6-(5-ethyl-1H-indol-2-yl)-4-hydroxy-5-methyl-2-oxo-1,2-dihydropyridine-3-carboxylic acid], the MIC in the experiment with E. coli 25922 was 12.5 to 150 µg/mL (≈ 40 to 480 µM); in experiment [1], 12.5 to 150 µg/mL (≈ 40 to 480 µM); in experiment [2] it was 3.5 to 12.5 µg/mL (≈ 11.2 to 40 µM); in experiment [3] it was 12.5 to 150 µg/mL (≈ 40 to 480 µM); in the experiment on E. coli LZ3111, 12.5 to 150 µg/mL (≈ 40 to 480 µM); in experiment [4], 12.5 to 150 µg/mL (≈ 40 to 480 µM). The MIC (in experiment [5]; in the experiment with K. pneumoniae MXX1232; in the experiment on A. baumannii MXX2240) was 12.5 to 150 µg/mL (≈ 40 to 480 µM) throughout.
As to `CCc1ccc2cc(-c3[nH]c(=O)c(C(=O)O)c(O)c3C)[nH]c2c1` [Cpd 387, 6-(6-ethyl-1H-indol-2-yl)-4-hydroxy-5-methyl-2-oxo-1,2-dihydropyridine-3-carboxylic acid], the MIC in the experiment on E. coli 25922 lay in the range of 12.5 to 150 µg/mL (≈ 40 to 480 µM); in [1], 12.5 to 150 µg/mL (≈ 40 to 480 µM); in experiment [2], 1 to 3.5 µg/mL (≈ 3.2 to 11.2 µM); in [3], 12.5 to 150 µg/mL (≈ 40 to 480 µM); in the experiment on E. coli LZ3111, 12.5 to 150 µg/mL (≈ 40 to 480 µM); in experiment [4], 12.5 to 150 µg/mL (≈ 40 to 480 µM). Further, the MIC (in [5]; in the experiment with K. pneumoniae MXX1232; in the experiment on A. baumannii MXX2240) was 12.5 to 150 µg/mL (≈ 40 to 480 µM) throughout.
On to `Cc1cc2[nH]c(-c3[nH]c(=O)c(C(=O)O)c(O)c3C)cc2cc1F` [Cpd 388, 6-(5-fluoro-6-methyl-1H-indol-2-yl)-4-hydroxy-5-methyl-2-oxo-1,2-dihydropyridine-3-carboxylic acid], for which the MIC was 12.5 to 150 µg/mL (≈ 39.5 to 474 µM) with E. coli 25922; 12.5 to 150 µg/mL (≈ 39.5 to 474 µM) in [1]; 3.5 to 12.5 µg/mL (≈ 11.1 to 39.5 µM) in experiment [2]; 12.5 to 150 µg/mL (≈ 39.5 to 474 µM) in experiment [3]; 12.5 to 150 µg/mL (≈ 39.5 to 474 µM) with E. coli LZ3111; 12.5 to 150 µg/mL (≈ 39.5 to 474 µM) in experiment [4]. The MIC (in experiment [5]; in the experiment on K. pneumoniae MXX1232; in the experiment with A. baumannii MXX2240) was 12.5 to 150 µg/mL (≈ 39.5 to 474 µM) each time.
For the compound `CCc1c(-c2ccc3cn(C)nc3c2)[nH]c(=O)c(C(=O)O)c1O` [Cpd 389, 5-ethyl-4-hydroxy-6-(2-methyl-2H-indazol-6-yl)-2-oxo-1,2-dihydropyridine-3-carboxylic acid], the MIC with E. coli 25922 lay within 12.5 to 150 µg/mL (≈ 39.9 to 479 µM); in [1] it was 12.5 to 150 µg/mL (≈ 39.9 to 479 µM); in experiment [2], 3.5 to 12.5 µg/mL (≈ 11.2 to 39.9 µM); in experiment [3] it was 12.5 to 150 µg/mL (≈ 39.9 to 479 µM); in the experiment with E. coli LZ3111, 3.5 to 12.5 µg/mL (≈ 11.2 to 39.9 µM); in experiment [4], 12.5 to 150 µg/mL (≈ 39.9 to 479 µM). Moreover, the MIC in experiment [5] lay in the range of 12.5 to 150 µg/mL (≈ 39.9 to 479 µM); in the experiment on K. pneumoniae MXX1232, 12.5 to 150 µg/mL (≈ 39.9 to 479 µM); in the experiment on A. baumannii MXX2240 it was 3.5 to 12.5 µg/mL (≈ 11.2 to 39.9 µM).
On to `CCc1c(-c2ccc3cnn(C)c3c2)[nH]c(=O)c(C(=O)O)c1O` [Cpd 390, 5-ethyl-4-hydroxy-6-(1-methyl-1H-indazol-6-yl)-2-oxo-1,2-dihydropyridine-3-carboxylic acid], for which the MIC with E. coli 25922 is 12.5 to 150 µg/mL (≈ 39.9 to 479 µM); in [1], 12.5 to 150 µg/mL (≈ 39.9 to 479 µM); in [2], 12.5 to 150 µg/mL (≈ 39.9 to 479 µM); in [3], 12.5 to 150 µg/mL (≈ 39.9 to 479 µM); with E. coli LZ3111 it was 3.5 to 12.5 µg/mL (≈ 11.2 to 39.9 µM); in experiment [4], 12.5 to 150 µg/mL (≈ 39.9 to 479 µM). Besides, the MIC in [5] lay within 12.5 to 150 µg/mL (≈ 39.9 to 479 µM); in the experiment with K. pneumoniae MXX1232, 12.5 to 150 µg/mL (≈ 39.9 to 479 µM); in the experiment with A. baumannii MXX2240 it was 3.5 to 12.5 µg/mL (≈ 11.2 to 39.9 µM).
